In publication PMC10905675, “INX-315, a Selective CDK2 Inhibitor, Induces Cell Cycle Arrest and Senescence in Solid Tumors” (Cancer Discovery, 2023):

How the values were obtained:
Experiment in all cases: SelectScreen ZLYTE
Type in all cases: biochemical
Settings in all cases: INX-0315 at 100nM
[1] = molecular target: T1, PRKX (Homo sapiens, UniProt P51817)
T1 construct: purchased Thermo Fisher Scientific SelectScreen (plus Nanosyn / Reaction Biology for CDK/cyclin lines)
Outline: (§1)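 Screening in two stages: one concentration of inhibitor (100 nmol/L; 1% DMSO), then a ten-point series from 1 µmol/L to 0.0495 nmol/L. Conditions were those fixed in advance by the provider.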

[2] = molecular target: T2, PRKCB2 (PKC beta II) (Homo sapiens, UniProt P05771)
T2 construct: purchased Thermo Fisher Scientific SelectScreen (plus Nanosyn / Reaction Biology for CDK/cyclin lines)
Outline: as §1

[3] = molecular target: T3, PKN1 (PRK1) (Homo sapiens, UniProt Q16512)
T3 construct: purchased Thermo Fisher Scientific SelectScreen (plus Nanosyn / Reaction Biology for CDK/cyclin lines)
Outline: as §1

[4] = molecular target: T4, CSNK1G1 (CK1 gamma 1) (Homo sapiens, UniProt Q9HCP0)
T4 construct: purchased Thermo Fisher Scientific SelectScreen (plus Nanosyn / Reaction Biology for CDK/cyclin lines)
Outline: as §1

[5] = molecular target: T5, PASK (Homo sapiens, UniProt Q96RG2)
T5 construct: purchased Thermo Fisher Scientific SelectScreen (plus Nanosyn / Reaction Biology for CDK/cyclin lines)
Outline: as §1

[6] = molecular target: T6, CHEK1 (CHK1) (Homo sapiens, UniProt O14757)
T6 construct: purchased Thermo Fisher Scientific SelectScreen (plus Nanosyn / Reaction Biology for CDK/cyclin lines)
Outline: as §1

[7] = molecular target: T7, JAK3 (Homo sapiens, UniProt P52333)
T7 construct: purchased Thermo Fisher Scientific SelectScreen (plus Nanosyn / Reaction Biology for CDK/cyclin lines)
Outline: as §1

[8] = molecular target: T8, INSRR (IRR) (Homo sapiens, UniProt P14616)
T8 construct: purchased Thermo Fisher Scientific SelectScreen (plus Nanosyn / Reaction Biology for CDK/cyclin lines)
Outline: as §1

[9] = molecular target: T9, FER (Homo sapiens, UniProt P16591)
T9 construct: purchased Thermo Fisher Scientific SelectScreen (plus Nanosyn / Reaction Biology for CDK/cyclin lines)
Outline: as §1

[10] = molecular target: T10, PRKCI (PKC iota) (Homo sapiens, UniProt P41743)
T10 construct: purchased Thermo Fisher Scientific SelectScreen (plus Nanosyn / Reaction Biology for CDK/cyclin lines)
Outline: as §1

[11] = molecular target: T11, SYK (Homo sapiens, UniProt P43405)
T11 construct: purchased Thermo Fisher Scientific SelectScreen (plus Nanosyn / Reaction Biology for CDK/cyclin lines)
Outline: as §1

[12] = molecular target: T12, RPS6KB1 (p70S6K) (Homo sapiens, UniProt P23443)
T12 construct: purchased Thermo Fisher Scientific SelectScreen (plus Nanosyn / Reaction Biology for CDK/cyclin lines)
Outline: as §1

[13] = molecular target: T13, GSK3A (GSK3 alpha) (Homo sapiens, UniProt P49840)
T13 construct: purchased Thermo Fisher Scientific SelectScreen (plus Nanosyn / Reaction Biology for CDK/cyclin lines)
Outline: as §1

[14] = molecular target: T14, AURKA (Aurora A) (Homo sapiens, UniProt O14965)
T14 construct: purchased Thermo Fisher Scientific SelectScreen (plus Nanosyn / Reaction Biology for CDK/cyclin lines)
Outline: as §1

[15] = molecular target: T15, FGFR4 (Homo sapiens, UniProt P22455)
T15 construct: purchased Thermo Fisher Scientific SelectScreen (plus Nanosyn / Reaction Biology for CDK/cyclin lines)
Outline: as §1

[16] = molecular target: T16, YES1 (Homo sapiens, UniProt P07947)
T16 construct: purchased Thermo Fisher Scientific SelectScreen (plus Nanosyn / Reaction Biology for CDK/cyclin lines)
Outline: as §1

[17] = molecular target: T17, FLT3 D835Y (Homo sapiens, UniProt P36888, D835Y)
T17 construct: purchased Thermo Fisher Scientific SelectScreen (plus Nanosyn / Reaction Biology for CDK/cyclin lines)
Outline: as §1

[18] = molecular target: T18, MAPK7 (ERK5) (Homo sapiens, UniProt Q13164)
T18 construct: purchased Thermo Fisher Scientific SelectScreen (plus Nanosyn / Reaction Biology for CDK/cyclin lines)
Outline: as §1

[19] = molecular target: T19, CSF1R (FMS) (Homo sapiens, UniProt P07333)
T19 construct: purchased Thermo Fisher Scientific SelectScreen (plus Nanosyn / Reaction Biology for CDK/cyclin lines)
Outline: as §1

[20] = molecular target: T20, JAK2 (Homo sapiens, UniProt O60674)
T20 construct: purchased Thermo Fisher Scientific SelectScreen (plus Nanosyn / Reaction Biology for CDK/cyclin lines)
Outline: as §1

[21] = molecular target: T21, KIT (Homo sapiens, UniProt P10721)
T21 construct: purchased Thermo Fisher Scientific SelectScreen (plus Nanosyn / Reaction Biology for CDK/cyclin lines)
Outline: as §1

[22] = molecular target: T22, CDC42 BPG (MRCKG) (Homo sapiens, UniProt Q6DT37)
T22 construct: purchased Thermo Fisher Scientific SelectScreen (plus Nanosyn / Reaction Biology for CDK/cyclin lines)
Outline: as §1

[23] = molecular target: T23, PTK6 (Brk) (Homo sapiens, UniProt Q13882)
T23 construct: purchased Thermo Fisher Scientific SelectScreen (plus Nanosyn / Reaction Biology for CDK/cyclin lines)
Outline: as §1

[24] = molecular target: T24, MET (cMet) (Homo sapiens, UniProt P08581)
T24 construct: purchased Thermo Fisher Scientific SelectScreen (plus Nanosyn / Reaction Biology for CDK/cyclin lines)
Outline: as §1

[25] = molecular target: T25, PAK2 (PAK65) (Homo sapiens, UniProt Q13177)
T25 construct: purchased Thermo Fisher Scientific SelectScreen (plus Nanosyn / Reaction Biology for CDK/cyclin lines)
Outline: as §1

[26] = molecular target: T26, SRPK2 (Homo sapiens, UniProt P78362)
T26 construct: purchased Thermo Fisher Scientific SelectScreen (plus Nanosyn / Reaction Biology for CDK/cyclin lines)
Outline: as §1

[27] = molecular target: T27, DAPK3 (ZIPK) (Homo sapiens, UniProt O43293)
T27 construct: purchased Thermo Fisher Scientific SelectScreen (plus Nanosyn / Reaction Biology for CDK/cyclin lines)
Outline: as §1

[28] = molecular target: T28, AMPK A1/B1/G1 (Homo sapiens, UniProt Q13131)
T28 construct: purchased Thermo Fisher Scientific SelectScreen (plus Nanosyn / Reaction Biology for CDK/cyclin lines)
Outline: as §1

[29] = molecular target: T29, PRKD2 (PKD2) (Homo sapiens, UniProt Q9BZL6)
T29 construct: purchased Thermo Fisher Scientific SelectScreen (plus Nanosyn / Reaction Biology for CDK/cyclin lines)
Outline: as §1

[30] = molecular target: T30, MAP3K8 (COT) (Homo sapiens, UniProt P41279)
T30 construct: purchased Thermo Fisher Scientific SelectScreen (plus Nanosyn / Reaction Biology for CDK/cyclin lines)
Outline: as §1

[31] = molecular target: T31, STK22B (TSSK2) (Homo sapiens, UniProt Q96PF2)
T31 construct: purchased Thermo Fisher Scientific SelectScreen (plus Nanosyn / Reaction Biology for CDK/cyclin lines)
Outline: as §1

[32] = molecular target: T32, ERBB4 (HER4) (Homo sapiens, UniProt Q15303)
T32 construct: purchased Thermo Fisher Scientific SelectScreen (plus Nanosyn / Reaction Biology for CDK/cyclin lines)
Outline: as §1

[33] = molecular target: T33, CDK1/cyclin B (Homo sapiens, UniProt P06493)
T33 construct: purchased Thermo Fisher Scientific SelectScreen (plus Nanosyn / Reaction Biology for CDK/cyclin lines)
Outline: as §1

[34] = molecular target: T34, EPHA1 (Homo sapiens, UniProt P21709)
T34 construct: purchased Thermo Fisher Scientific SelectScreen (plus Nanosyn / Reaction Biology for CDK/cyclin lines)
Outline: as §1

[35] = molecular target: T35, STK24 (MST3) (Homo sapiens, UniProt Q9Y6E0)
T35 construct: purchased Thermo Fisher Scientific SelectScreen (plus Nanosyn / Reaction Biology for CDK/cyclin lines)
Outline: as §1

[36] = molecular target: T36, ACVR1B (ALK4) (Homo sapiens, UniProt P36896)
T36 construct: purchased Thermo Fisher Scientific SelectScreen (plus Nanosyn / Reaction Biology for CDK/cyclin lines)
Outline: as §1

[37] = molecular target: T37, MAP2K1 (MEK1) (Homo sapiens, UniProt Q02750)
T37 construct: purchased Thermo Fisher Scientific SelectScreen (plus Nanosyn / Reaction Biology for CDK/cyclin lines)
Outline: as §1

T23 sequence (Q13882 whole entry): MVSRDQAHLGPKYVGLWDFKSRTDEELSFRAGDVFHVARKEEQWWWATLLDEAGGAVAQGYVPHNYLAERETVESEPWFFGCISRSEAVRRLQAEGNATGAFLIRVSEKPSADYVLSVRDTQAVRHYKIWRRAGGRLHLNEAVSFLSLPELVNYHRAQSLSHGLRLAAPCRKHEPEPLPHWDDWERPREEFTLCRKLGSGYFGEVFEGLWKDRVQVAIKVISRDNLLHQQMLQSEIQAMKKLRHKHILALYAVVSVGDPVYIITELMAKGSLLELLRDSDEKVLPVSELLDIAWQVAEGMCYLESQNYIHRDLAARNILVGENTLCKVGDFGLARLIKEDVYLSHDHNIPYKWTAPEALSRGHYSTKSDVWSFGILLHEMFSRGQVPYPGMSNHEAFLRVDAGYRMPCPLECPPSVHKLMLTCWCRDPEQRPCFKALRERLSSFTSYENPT
T5 sequence (Q96RG2 whole entry): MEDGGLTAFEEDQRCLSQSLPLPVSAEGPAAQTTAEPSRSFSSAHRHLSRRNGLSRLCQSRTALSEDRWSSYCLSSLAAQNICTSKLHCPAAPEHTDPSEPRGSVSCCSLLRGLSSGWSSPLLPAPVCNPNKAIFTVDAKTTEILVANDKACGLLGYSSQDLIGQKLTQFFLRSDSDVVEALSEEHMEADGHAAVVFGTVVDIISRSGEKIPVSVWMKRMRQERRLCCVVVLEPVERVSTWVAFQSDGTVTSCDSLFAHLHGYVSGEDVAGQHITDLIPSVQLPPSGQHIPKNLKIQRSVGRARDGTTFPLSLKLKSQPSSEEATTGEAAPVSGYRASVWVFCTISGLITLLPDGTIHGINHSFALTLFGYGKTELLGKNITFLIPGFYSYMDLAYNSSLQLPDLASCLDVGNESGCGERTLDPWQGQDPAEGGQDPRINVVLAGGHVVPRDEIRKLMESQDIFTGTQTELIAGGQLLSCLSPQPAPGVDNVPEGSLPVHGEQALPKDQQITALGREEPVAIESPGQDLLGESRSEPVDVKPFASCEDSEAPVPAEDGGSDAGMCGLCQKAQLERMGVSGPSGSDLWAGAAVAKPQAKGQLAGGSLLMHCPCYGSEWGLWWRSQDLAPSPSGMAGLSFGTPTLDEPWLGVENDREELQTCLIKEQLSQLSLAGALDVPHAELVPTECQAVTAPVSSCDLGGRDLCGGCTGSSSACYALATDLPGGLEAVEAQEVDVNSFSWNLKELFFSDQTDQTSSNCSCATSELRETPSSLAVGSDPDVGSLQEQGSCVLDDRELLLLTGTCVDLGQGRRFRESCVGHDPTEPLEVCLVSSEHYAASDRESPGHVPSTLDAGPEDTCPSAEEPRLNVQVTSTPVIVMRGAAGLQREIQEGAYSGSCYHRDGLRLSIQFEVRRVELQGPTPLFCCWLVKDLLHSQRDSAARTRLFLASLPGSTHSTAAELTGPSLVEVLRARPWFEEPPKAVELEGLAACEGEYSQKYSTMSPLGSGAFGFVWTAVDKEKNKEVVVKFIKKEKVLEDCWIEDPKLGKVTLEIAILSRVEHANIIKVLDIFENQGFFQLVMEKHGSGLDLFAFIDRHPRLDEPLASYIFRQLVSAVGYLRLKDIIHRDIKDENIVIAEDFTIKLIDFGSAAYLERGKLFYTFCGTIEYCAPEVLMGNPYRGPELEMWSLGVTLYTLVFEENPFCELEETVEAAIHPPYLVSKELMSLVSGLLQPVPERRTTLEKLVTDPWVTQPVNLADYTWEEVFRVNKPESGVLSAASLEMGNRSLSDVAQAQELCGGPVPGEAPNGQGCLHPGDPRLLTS
T36 sequence (P36896 24-505): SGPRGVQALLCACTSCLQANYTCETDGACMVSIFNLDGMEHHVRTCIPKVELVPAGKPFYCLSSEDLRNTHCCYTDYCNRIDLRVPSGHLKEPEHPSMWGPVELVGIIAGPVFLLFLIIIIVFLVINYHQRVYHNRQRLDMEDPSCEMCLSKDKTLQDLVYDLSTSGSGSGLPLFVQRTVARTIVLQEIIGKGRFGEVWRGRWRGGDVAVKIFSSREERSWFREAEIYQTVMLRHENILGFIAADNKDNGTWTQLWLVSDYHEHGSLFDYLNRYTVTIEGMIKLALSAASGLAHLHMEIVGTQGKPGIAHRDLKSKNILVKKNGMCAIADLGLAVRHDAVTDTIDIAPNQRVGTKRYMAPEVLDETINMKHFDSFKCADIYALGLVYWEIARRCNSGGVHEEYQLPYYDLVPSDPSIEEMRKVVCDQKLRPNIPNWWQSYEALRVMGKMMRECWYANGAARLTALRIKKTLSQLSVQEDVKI
T14 sequence (O14965 whole entry): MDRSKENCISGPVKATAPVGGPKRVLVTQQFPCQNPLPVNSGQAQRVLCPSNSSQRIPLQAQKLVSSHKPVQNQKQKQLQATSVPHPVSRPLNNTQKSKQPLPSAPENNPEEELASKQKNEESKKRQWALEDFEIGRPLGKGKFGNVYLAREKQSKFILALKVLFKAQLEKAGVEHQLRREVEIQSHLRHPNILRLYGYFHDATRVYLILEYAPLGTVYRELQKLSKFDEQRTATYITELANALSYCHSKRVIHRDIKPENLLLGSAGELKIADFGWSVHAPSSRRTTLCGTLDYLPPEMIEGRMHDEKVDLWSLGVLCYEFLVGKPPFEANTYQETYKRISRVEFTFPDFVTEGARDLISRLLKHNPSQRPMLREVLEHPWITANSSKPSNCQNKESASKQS
T29 sequence (Q9BZL6 whole entry): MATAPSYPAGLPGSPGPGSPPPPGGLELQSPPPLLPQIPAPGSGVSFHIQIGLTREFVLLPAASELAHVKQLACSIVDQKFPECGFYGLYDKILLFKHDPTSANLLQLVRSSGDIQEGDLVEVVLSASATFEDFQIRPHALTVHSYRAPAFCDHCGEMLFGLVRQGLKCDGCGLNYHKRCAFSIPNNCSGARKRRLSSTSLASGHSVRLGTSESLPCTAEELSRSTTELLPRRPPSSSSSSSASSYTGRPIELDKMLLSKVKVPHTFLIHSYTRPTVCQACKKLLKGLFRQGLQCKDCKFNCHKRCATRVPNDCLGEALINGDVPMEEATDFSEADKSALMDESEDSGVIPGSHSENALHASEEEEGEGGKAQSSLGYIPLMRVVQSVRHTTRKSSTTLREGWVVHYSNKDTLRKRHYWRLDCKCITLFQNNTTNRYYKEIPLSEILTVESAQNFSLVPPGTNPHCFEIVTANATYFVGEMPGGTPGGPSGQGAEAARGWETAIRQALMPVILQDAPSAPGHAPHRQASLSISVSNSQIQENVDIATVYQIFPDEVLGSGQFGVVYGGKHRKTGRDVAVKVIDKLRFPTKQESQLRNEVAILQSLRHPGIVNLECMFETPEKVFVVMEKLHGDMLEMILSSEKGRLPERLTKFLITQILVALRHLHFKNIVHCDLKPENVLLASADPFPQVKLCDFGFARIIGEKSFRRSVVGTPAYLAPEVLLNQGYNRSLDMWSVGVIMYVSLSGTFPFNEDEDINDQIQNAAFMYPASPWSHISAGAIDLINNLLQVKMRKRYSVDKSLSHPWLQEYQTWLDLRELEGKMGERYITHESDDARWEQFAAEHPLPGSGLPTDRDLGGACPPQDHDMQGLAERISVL
T1 sequence (P51817 whole entry): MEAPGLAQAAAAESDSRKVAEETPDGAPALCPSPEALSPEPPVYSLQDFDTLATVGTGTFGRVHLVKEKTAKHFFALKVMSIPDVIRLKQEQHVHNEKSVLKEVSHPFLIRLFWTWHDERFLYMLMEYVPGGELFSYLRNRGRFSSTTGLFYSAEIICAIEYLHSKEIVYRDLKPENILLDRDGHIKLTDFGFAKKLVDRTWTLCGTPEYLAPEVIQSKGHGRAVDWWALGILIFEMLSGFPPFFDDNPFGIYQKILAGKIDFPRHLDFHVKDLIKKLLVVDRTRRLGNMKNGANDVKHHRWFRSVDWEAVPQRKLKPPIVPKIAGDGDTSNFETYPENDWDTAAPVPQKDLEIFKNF
T16 sequence (P07947 whole entry): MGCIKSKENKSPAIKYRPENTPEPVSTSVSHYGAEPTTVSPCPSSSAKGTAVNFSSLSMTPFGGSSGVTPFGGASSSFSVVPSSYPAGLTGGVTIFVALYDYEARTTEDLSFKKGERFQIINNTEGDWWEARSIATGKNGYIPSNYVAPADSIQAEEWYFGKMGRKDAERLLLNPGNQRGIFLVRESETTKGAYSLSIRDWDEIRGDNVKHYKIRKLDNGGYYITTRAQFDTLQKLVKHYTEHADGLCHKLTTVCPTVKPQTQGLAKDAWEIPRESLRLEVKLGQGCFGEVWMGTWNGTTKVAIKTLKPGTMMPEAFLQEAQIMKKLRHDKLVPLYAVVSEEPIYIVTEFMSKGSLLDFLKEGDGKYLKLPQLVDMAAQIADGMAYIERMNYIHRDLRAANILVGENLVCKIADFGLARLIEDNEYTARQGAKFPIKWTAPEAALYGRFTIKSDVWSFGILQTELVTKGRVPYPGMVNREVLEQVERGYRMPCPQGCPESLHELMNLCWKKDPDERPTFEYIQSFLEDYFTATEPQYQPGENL
T12 sequence (P23443 whole entry): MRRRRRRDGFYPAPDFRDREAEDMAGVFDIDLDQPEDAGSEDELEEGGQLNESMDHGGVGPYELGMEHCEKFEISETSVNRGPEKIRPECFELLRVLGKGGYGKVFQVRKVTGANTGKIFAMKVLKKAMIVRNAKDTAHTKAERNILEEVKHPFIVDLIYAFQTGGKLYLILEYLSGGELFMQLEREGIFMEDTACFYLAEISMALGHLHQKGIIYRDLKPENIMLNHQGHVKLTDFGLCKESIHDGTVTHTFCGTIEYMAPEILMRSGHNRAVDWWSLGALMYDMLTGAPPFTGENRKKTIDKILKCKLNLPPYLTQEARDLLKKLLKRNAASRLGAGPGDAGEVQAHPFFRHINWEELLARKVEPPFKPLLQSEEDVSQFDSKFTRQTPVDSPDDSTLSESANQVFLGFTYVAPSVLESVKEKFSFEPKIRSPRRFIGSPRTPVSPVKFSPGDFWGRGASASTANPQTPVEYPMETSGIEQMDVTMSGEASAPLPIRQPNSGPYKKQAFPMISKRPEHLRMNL

`NS(=O)(=O)c1ccc(Nc2ncc3cc4n(c3n2)C2(CCCCC2)C(=O)NN4)cc1` [INX-315] was tested, and the inhibition at 0.1 µM [1] was 3%, the inhibition at 0.1 µM [2] was 13% and the inhibition at 0.1 µM [3] was 7%. For the same compound, the inhibition at 0.1 µM [4] was 1%, the inhibition at 0.1 µM [5] was 2% and the inhibition at 0.1 µM [6] was 2%. For the same compound, the inhibition at 0.1 µM [7] was 24%, the inhibition at 0.1 µM [8] was 3% and the inhibition at 0.1 µM [9] was 13%. The inhibition at 0.1 µM [10] was -5%, the inhibition at 0.1 µM [11] was 8% and the inhibition at 0.1 µM [12] was 1%. The inhibition at 0.1 µM [13] was 11%, the inhibition at 0.1 µM [14] was 38% and the inhibition at 0.1 µM [15] was 2%. The inhibition at 0.1 µM [16] was 16%, the inhibition at 0.1 µM [17] was 31% and the inhibition at 0.1 µM [18] was 5%. The inhibition at 0.1 µM [19] was 95%, the inhibition at 0.1 µM [20] was 49% and the inhibition at 0.1 µM [21] was 9%. The inhibition at 0.1 µM [22] was 4%, the inhibition at 0.1 µM [23] was -1% and the inhibition at 0.1 µM [24] was 6%. The inhibition at 0.1 µM [25] was 5%, the inhibition at 0.1 µM [26] was 2% and the inhibition at 0.1 µM [27] was 6%. For the same compound, the inhibition at 0.1 µM [28] was 32%, the inhibition at 0.1 µM [29] was 5% and the inhibition at 0.1 µM [30] was -1%. The inhibition at 0.1 µM [31] was -2%, the inhibition at 0.1 µM [32] was 2% and the inhibition at 0.1 µM [33] was 58%. It also gave an inhibition at 0.1 µM [34] of 22%, an inhibition at 0.1 µM [35] of 11% and an inhibition at 0.1 µM [36] of -2%. It also gave an inhibition at 0.1 µM [37] of 15%.
